Numbered stars: 1 amine (or outer) side, 2 acyl side, 3 side chain; on linkers, the order of the positions; unused ones are H or OH. Square brackets hold non-standard residues; d marks the D form. Peptide text beside a SMILES is read from it. * marks the point of attachment. DOTA = O=C(O)CN1CCN(CC(=O)O)CCN(CC(=O)*)CCN(CC(=O)O)CC1; d(γGlu) = O=C(O)[C@@H](CCC(=O)[*:2])N[*:1]; 1Nal = N[C@@H](Cc1cccc2ccccc12)C(=O)O; NMeNle = CCCC[C@H](NC)C(=O)O; PEG4 = NCCOCCOCCOCCOCCC(=O)O
How the values were obtained:
in vivo [1] = assay: in vivo; design: species or system BALB/c nude mice; details: mouse; for tissue to tissue ratio at 0.5 h / tissue to tissue ratio at 1 h / tissue to tissue ratio at 2 h: female, BALB/c nude, iv, 3.7 MBq, total radioactivity
Experimental: To complement the imaging studies, biodistribution experiments were performed. AR42J tumor-bearing mice were intravenously injected with 3.7 MBq of [^68Ga]Ga-DOTA-CCK2R-dimer (≈ 120 pmol) or [^68Ga]Ga-DOTA-CCK-66 (≈ 210 pmol) (dissolved in 200 μL of saline; n = 3/group). The mice were sacrificed at 30, 60, and 120 min post-injection, and the tissues of interest were excised, weighed, and analyzed for radioactivity using a γ-counter. For blocking studies, a 400-fold excess of the lead compound was co-administered, and the mice were sacrificed at 1 h post-injection.
(§1) All animal studies were approved by the Ethics Committee of Fudan University
(§2) Shanghai Cancer Center (No. FUSCC-IACUC- S2023- 0003). Five-week-old female
(§3) BALB/c nude mice were purchased from Shanghai SLAC Laboratory Animal
(§4) Company. To establish cell-derived xenograft (CDX) models, 1 × 10⁶ AR42J cells
(§5) (100 μL) were subcutaneously inoculated into the right shoulder of each mouse. […]

[2] = format: physicochemical; details: pH 7.4
Experimental: The hydrophilicity of [^68Ga]Ga-DOTA-CCK2R-dimer and [^68Ga]Ga-DOTA-CCK-66 was assessed by determining their partition coefficients (Log D7.4) in a phosphate-buffered saline (PBS; pH 7.4)/n-octanol (1:1, v/v) system. Briefly, ~37 kBq of each radiotracer was mixed with 2 mL of the biphasic system, vortexed for 5 min, and centrifuged at 15,000 × g for 5 min. The radioactivity in 100 μL aliquots of each phase was quantified using a γ-counter (n = 5).

in vivo [3] = assay: in vivo; design: species or system BALB/c nude mice; details: female, BALB/c nude, mouse, iv, total radioactivity
Experimental: For the micro-positron emission tomography/computed tomography (microPET/CT) imaging study, BALB/c nude mice bearing AR42J tumors (detailed in Supplementary Methods Section S3: Mouse Models) were intravenously injected with 3.7 MBq of [^68Ga]Ga-DOTA-CCK2R-dimer (≈ 120 pmol) or [^68Ga]Ga-DOTA-CCK-66 (≈ 210 pmol) (dissolved in 200 μL of saline; n = 3/group), and microPET/CT imaging was performed at 30, 60, and 120 min post-injection. The mice were anesthetized via inhalation of an isoflurane mixture approximately 5 min before each PET/CT acquisition began. To confirm tumor-specific radiopharmaceutical uptake, blocking experiments were conducted at the 1-h time point of imaging by coinjecting the mice with the radiopharmaceutical and a 400-fold excess of the lead compound.
as §1, §2, §3, §4, §5

[4] = Tumor-to-Large intestine ratio (T/B)
[5] = Tumor-to-Small intestine ratio (T/B)

- tissue to tissue ratio at 0.5 h (in vivo [1]; Tumor-to-Bladder ratio (T/B)): 1.95 ± 0.96
- tissue to tissue ratio at 1 h (in vivo [1]; Tumor-to-Bladder ratio (T/B)): 4.41 ± 1.16
- tissue to tissue ratio at 2 h (in vivo [1]; Tumor-to-Bladder ratio (T/B)): 7.5 ± 2.91
- tissue to tissue ratio at 0.5 h (in vivo [1]; Tumor-to-Blood ratio (T/B)): 2.48 ± 0.27
- tissue to tissue ratio at 1 h (in vivo [1]; Tumor-to-Blood ratio (T/B)): 6.36 ± 1.3
- tissue to tissue ratio at 2 h (in vivo [1]; Tumor-to-Blood ratio (T/B)): 18.1 ± 14.9
- tissue to tissue ratio at 0.5 h (in vivo [1]; Tumor-to-Bone ratio (T/B)): 29.9 ± 14.1
- tissue to tissue ratio at 1 h (in vivo [1]; Tumor-to-Bone ratio (T/B)): 34.9 ± 29.4
- tissue to tissue ratio at 2 h (in vivo [1]; Tumor-to-Bone ratio (T/B)): 98 ± 19.9
- tissue to tissue ratio at 0.5 h (in vivo [1]; Tumor-to-Brain ratio (T/B)): 72.8 ± 22.6
- tissue to tissue ratio at 1 h (in vivo [1]; Tumor-to-Brain ratio (T/B)): 91.4 ± 5.94
- tissue to tissue ratio at 2 h (in vivo [1]; Tumor-to-Brain ratio (T/B)): 141 ± 66.3
- tissue to tissue ratio at 0.5 h (in vivo [1]; Tumor-to-Heart ratio (T/B)): 10.9 ± 1.72
- tissue to tissue ratio at 1 h (in vivo [1]; Tumor-to-Heart ratio (T/B)): 8.93 ± 4.2
- tissue to tissue ratio at 2 h (in vivo [1]; Tumor-to-Heart ratio (T/B)): 33.2 ± 30.2
- tissue to tissue ratio at 0.5 h (in vivo [1]; Tumor-to-Kidney ratio (T/B)): 1.8 ± 0.2
- tissue to tissue ratio at 1 h (in vivo [1]; Tumor-to-Kidney ratio (T/B)): 1.1 ± 0.47
- tissue to tissue ratio at 2 h (in vivo [1]; Tumor-to-Kidney ratio (T/B)): 1.67 ± 0.79
- tissue to tissue ratio at 0.5 h (in vivo [1]; [4]): 5.91 ± 1.81
- tissue to tissue ratio at 1 h (in vivo [1]; [4]): 13.3 ± 6.96
- tissue to tissue ratio at 2 h (in vivo [1]; [4]): 26.2 ± 5.5
- tissue to tissue ratio at 0.5 h (in vivo [1]; Tumor-to-Liver ratio (T/B)): 4.12 ± 0.63
- tissue to tissue ratio at 1 h (in vivo [1]; Tumor-to-Liver ratio (T/B)): 4.3 ± 0.38
- tissue to tissue ratio at 2 h (in vivo [1]; Tumor-to-Liver ratio (T/B)): 13.2 ± 7.75
- tissue to tissue ratio at 0.5 h (in vivo [1]; Tumor-to-Lung ratio (T/B)): 3.22 ± 0.56
- tissue to tissue ratio at 1 h (in vivo [1]; Tumor-to-Lung ratio (T/B)): 7.32 ± 5.81
- tissue to tissue ratio at 2 h (in vivo [1]; Tumor-to-Lung ratio (T/B)): 11.7 ± 2.81
- tissue to tissue ratio at 0.5 h (in vivo [1]; Tumor-to-Muscle ratio (T/M)): 6.69 ± 2.78
- tissue to tissue ratio at 1 h (in vivo [1]; Tumor-to-Muscle ratio (T/M)): 10.2 ± 1.41
- tissue to tissue ratio at 2 h (in vivo [1]; Tumor-to-Muscle ratio (T/M)): 15.2 ± 6.94
- tissue to tissue ratio at 0.5 h (in vivo [1]; [5]): 5.83 ± 2.57
- tissue to tissue ratio at 1 h (in vivo [1]; [5]): 7.43 ± 1.49
- tissue to tissue ratio at 2 h (in vivo [1]; [5]): 25.7 ± 17.9
- tissue to tissue ratio at 0.5 h (in vivo [1]; Tumor-to-Spleen ratio (T/B)): 4.46 ± 1.21
- tissue to tissue ratio at 1 h (in vivo [1]; Tumor-to-Spleen ratio (T/B)): 7 ± 2.74
- tissue to tissue ratio at 2 h (in vivo [1]; Tumor-to-Spleen ratio (T/B)): 24.9 ± 10.9
- tissue to tissue ratio at 0.5 h (in vivo [1]; Tumor-to-Stomach ratio (T/B)): 4.5 ± 1.83
- tissue to tissue ratio at 1 h (in vivo [1]; Tumor-to-Stomach ratio (T/B)): 5.06 ± 2.32
- tissue to tissue ratio at 2 h (in vivo [1]; Tumor-to-Stomach ratio (T/B)): 6 ± 1.93
- tissue uptake at 0.5 h (in vivo [1]; Bladder uptake): 1.9 ± 1.13 %ID/g
- tissue uptake at 1 h (in vivo [1]; Bladder uptake): 1.59 ± 0.47 %ID/g
- tissue uptake at 2 h (in vivo [1]; Bladder uptake): 1.37 ± 0.43 %ID/g
- tissue uptake at 0.5 h (in vivo [1]; Blood uptake): 1.22 ± 0.15 %ID/g
- tissue uptake at 2 h (in vivo [1]; Blood uptake): 0.69 ± 0.3 %ID/g
- tissue uptake at 0.5 h (in vivo [1]; Bone uptake): 0.12 ± 0.05 %ID/g
- tissue uptake at 2 h (in vivo [1]; Bone uptake): 0.1 ± 0.04 %ID/g
- tissue uptake at 0.5 h (in vivo [1]; Brain uptake): 0.03 ± 0.01 %ID/g
- tissue uptake at 2 h (in vivo [1]; Brain uptake): 0.07 ± 0.01 %ID/g
- tissue uptake at 0.5 h (in vivo [1]; Heart uptake): 0.28 ± 0.04 %ID/g
- tissue uptake at 2 h (in vivo [1]; Heart uptake): 0.48 ± 0.31 %ID/g
- tissue uptake at 0.5 h (in vivo [1]; Kidney uptake): 1.68 ± 0.19 %ID/g
- tissue uptake at 1 h (in vivo [1]; Kidney uptake): 7.52 ± 1.95 %ID/g
- tissue uptake at 2 h (in vivo [1]; Kidney uptake): 6.4 ± 2.54 %ID/g
- tissue uptake at 0.5 h (in vivo [1]; Large intestine uptake): 0.55 ± 0.19 %ID/g
- tissue uptake at 2 h (in vivo [1]; Large intestine uptake): 0.37 ± 0.06 %ID/g
- tissue uptake at 0.5 h (in vivo [1]; Liver uptake): 0.74 ± 0.1 %ID/g
- tissue uptake at 1 h (in vivo [1]; Liver uptake): 1.57 ± 0.22 %ID/g
- tissue uptake at 2 h (in vivo [1]; Liver uptake): 0.54 ± 0.17 %ID/g
- tissue uptake at 0.5 h (in vivo [1]; Lung uptake): 0.95 ± 0.14 %ID/g
- tissue uptake at 1 h (in vivo [1]; Lung uptake): 1.25 ± 0.6 %ID/g
- tissue uptake at 2 h (in vivo [1]; Lung uptake): 0.87 ± 0.31 %ID/g
- tissue uptake at 0.5 h (in vivo [1]; Muscle uptake): 0.52 ± 0.27 %ID/g
- tissue uptake at 2 h (in vivo [1]; Muscle uptake): 0.72 ± 0.36 %ID/g
- tissue uptake at 0.5 h (in vivo [1]; Small intestine uptake): 0.57 ± 0.21 %ID/g
- tissue uptake at 2 h (in vivo [1]; Small intestine uptake): 0.5 ± 0.27 %ID/g
- tissue uptake at 0.5 h (in vivo [1]; Spleen uptake): 0.71 ± 0.2 %ID/g
- tissue uptake at 2 h (in vivo [1]; Spleen uptake): 0.45 ± 0.23 %ID/g
- tissue uptake at 0.5 h (in vivo [1]; Stomach uptake): 0.74 ± 0.27 %ID/g
- tissue uptake at 2 h (in vivo [1]; Stomach uptake): 1.63 ± 0.27 %ID/g
- tissue uptake at 0.5 h (in vivo [1]; Tumor uptake): 3 ± 0.63 %ID/g
- tissue uptake at 2 h (in vivo [1]; Tumor uptake): 9.53 ± 2.38 %ID/g
- logD [2]: -3.03 ± 0.03
- tissue uptake at 0.5 h (in vivo [3]; 3.7 MBq): 16 ± 2.18 %ID/g
- tissue uptake at 1 h (in vivo [3]; 3.7 MBq): 19.5 ± 2.95 %ID/g
- tissue uptake at 2 h (in vivo [3]; 3.7 MBq): 19.6 ± 3.35 %ID/g
- tissue uptake at 1 h (in vivo [3]): 7.9 ± 1.35 %ID/g
Compound: CCCC[C@@H](C(=O)N[C@@H](CC(=O)O)C(=O)N[C@@H](Cc1cccc2ccccc12)C(N)=O)N(C)C(=O)[C@H](Cc1c[nH]c2ccccc12)NC(=O)CCOCCOCCOCCOCCNC(=O)CC[C@@H](NC(=O)CN1CCN(CC(=O)O)CCN(CC(=O)O)CCN(CC(=O)O)CC1)C(=O)O [[68Ga]Ga-DOTA-CCK-66, metal not drawn, reference compound] ({DOTA-d(γGlu)-PEG4}-W[NMeNle]D[1Nal]-NH2)

Source: publication PMC12439480, “Dimeric CCK2R radiotheranostic tracers synergize with mTOR inhibition for enhanced tumor therapy” (Theranostics, 2025)
